GI50 and IC50 data for nine molecules are collected here from US9938273B2 (Plexxikon Inc., priority 2015, dated 2018).

Test [1] deals with T1, BA/F3-FLT3-ITD + D835Y cells (Homo sapiens, UniProt P36888, D835Y, cells depend on it, form not given).
T1 sequence (P36888 1-993 D835Y): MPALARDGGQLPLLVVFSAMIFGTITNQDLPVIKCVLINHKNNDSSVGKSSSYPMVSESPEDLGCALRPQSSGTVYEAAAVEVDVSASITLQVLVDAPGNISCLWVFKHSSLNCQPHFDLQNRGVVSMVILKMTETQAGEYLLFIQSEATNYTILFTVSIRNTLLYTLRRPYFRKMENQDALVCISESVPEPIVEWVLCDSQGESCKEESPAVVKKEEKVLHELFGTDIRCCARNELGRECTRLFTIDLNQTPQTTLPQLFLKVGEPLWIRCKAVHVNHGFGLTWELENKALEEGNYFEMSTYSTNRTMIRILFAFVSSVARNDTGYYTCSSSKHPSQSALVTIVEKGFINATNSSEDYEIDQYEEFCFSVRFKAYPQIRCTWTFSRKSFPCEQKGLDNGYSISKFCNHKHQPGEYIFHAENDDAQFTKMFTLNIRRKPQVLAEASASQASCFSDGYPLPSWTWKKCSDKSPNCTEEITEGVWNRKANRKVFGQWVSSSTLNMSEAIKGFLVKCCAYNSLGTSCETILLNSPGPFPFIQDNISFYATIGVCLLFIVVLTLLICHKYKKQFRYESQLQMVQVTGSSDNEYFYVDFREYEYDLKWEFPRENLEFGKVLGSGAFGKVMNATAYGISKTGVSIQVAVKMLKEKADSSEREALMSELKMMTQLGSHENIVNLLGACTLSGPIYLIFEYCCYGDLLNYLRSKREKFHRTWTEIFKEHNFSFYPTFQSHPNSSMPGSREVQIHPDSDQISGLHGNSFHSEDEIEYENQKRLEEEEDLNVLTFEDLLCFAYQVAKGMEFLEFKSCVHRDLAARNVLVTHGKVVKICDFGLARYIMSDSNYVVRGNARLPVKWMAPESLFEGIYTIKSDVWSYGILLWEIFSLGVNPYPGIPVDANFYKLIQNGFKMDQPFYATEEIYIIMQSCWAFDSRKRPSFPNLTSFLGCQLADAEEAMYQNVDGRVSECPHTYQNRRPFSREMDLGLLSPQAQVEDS
The test is described as follows: Cell proliferation assay (CellTiter-Glo), engineered BA/F3 cells. The settings on record: BaF3 FLT3 ITD/D835Y cells, 3d-Growth; read-out: BaF3_FLT3 ITD/D835Y 3d-Growth: IC50. The class given is cell-based, murine. The source says:
The FLT3 inhibitors may be assessed using the MOLM-14, Acute Myeloid Leukemia cell line that endogenously expresses FLT3 ITD or derivatives of the human FLT3 AML cell line which acquired the D835Y (activation loop) of F691L (gatekeeper) mutation after selection in escalating doses of the FLT3 Inhibitor AC220. FLT3 inhibitors may also be assessed using cells that are engineered to express mutant FLT3. For engineered cells, murine Ba/F3 cells were transfected with full-length FLT3 ITD/D835Y mutations. The parental BA/F3 cells are dependent upon Interleukin-3 (IL-3) for survival, and introduction of the FLT3 constructs rendered these cells dependent upon FLT3 kinase activity when cultured in the absences of IL-3. Engineered BA/F3 cell growth assays can be performed in either the […] of IL-3, to assess the compound inhibition of FLT3 or to detect the presence of off-target activity, respectively. Inhibitors of FLT3 kinase activity reduce or eliminate the FLT3 oncogenic signaling, resulting in reduced cell proliferation. This inhibition is measured as a function of compound concentration to asses IC50 values.
Cell lines used in proliferation assays are as follows in Table 3:
Cells were seeded at 1×10^4 cells per well of a 96 well cell culture plate in 50 μl of cell culture medium. Compounds were dissolved in DMSO, typically at a concentration of 0.5 mM and were serially diluted 1:3 for a total of eight points and added to the cells to final concentrations of […], 0.0041, 0.0014 and 0.00046 μM in 100 μl cell culture medium (final concentration 0.2% DMSO). […] The cells were incubated at 37° C., 5% CO2 for three days. CellTiter-Glo Buffer (Promega Cell Viability Assay catalog #G7573) and substrate were equilibrated to room temperature, and enzyme/substrate Recombinant Firefly Luciferase/Beetle Luciferin was reconstituted. The cell plates were equilibrated to room temperature for 30 minutes, then lysed by addition of an equivalent volume of the Celltiter-Glo Reagent. The plate was mixed for 10 minutes on a plate shaker to lyse the cells. The plates were read on a Tecan M1000 using Luminescence protocol modified to read 0.1 s per well. The luminescence reading assesses the ATP content, which correlates directly with cell number such that the reading as a function of compound concentration was used to determine the IC50 value.
A general note: ATP-based viability assays read luminescence as a measure of living cells.

The target of a further test is T2, c-KIT (Homo sapiens, UniProt P10721).
T2 construct: purchased Millipore 14-559K
T2 sequence (P10721 26-976): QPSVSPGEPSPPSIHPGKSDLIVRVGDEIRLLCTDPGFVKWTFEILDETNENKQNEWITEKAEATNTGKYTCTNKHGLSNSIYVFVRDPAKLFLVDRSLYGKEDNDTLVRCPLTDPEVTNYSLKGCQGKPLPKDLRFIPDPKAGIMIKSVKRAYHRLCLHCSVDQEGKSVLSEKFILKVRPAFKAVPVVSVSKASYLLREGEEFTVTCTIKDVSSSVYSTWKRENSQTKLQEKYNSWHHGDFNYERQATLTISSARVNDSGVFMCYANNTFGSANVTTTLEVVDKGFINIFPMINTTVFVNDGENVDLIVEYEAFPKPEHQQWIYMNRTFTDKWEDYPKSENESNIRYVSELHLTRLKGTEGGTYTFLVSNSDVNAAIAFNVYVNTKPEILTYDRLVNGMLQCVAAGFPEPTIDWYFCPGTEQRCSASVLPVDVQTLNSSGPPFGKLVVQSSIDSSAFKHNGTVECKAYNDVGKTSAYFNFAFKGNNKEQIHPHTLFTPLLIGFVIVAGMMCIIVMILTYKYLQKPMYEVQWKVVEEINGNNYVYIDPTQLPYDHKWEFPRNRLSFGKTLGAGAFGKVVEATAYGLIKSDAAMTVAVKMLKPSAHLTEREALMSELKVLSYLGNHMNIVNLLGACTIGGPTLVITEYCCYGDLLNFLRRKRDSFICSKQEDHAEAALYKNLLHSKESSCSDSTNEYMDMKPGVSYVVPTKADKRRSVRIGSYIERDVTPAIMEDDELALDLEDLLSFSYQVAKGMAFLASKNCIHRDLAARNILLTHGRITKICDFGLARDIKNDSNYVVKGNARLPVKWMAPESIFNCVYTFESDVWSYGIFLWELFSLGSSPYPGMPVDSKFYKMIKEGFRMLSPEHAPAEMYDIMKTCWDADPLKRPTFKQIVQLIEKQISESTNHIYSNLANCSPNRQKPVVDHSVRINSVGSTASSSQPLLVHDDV
The test is described as follows: AlphaScreen kinase assay with recombinant enzyme, c-KIT. The class given is biochemical. The settings on record: 100ATP, 8pt, GMean. Summed up: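 Read-out: AlphaScreen proximity signal at 580 nm (680 nm excitation), lost as peptide tyrosine phosphorylation falls. Substrate Biotin-GG(EEEEY)10EE at 30 nM; IC50 runs at 10 μM (FLT3 mutants) or 100 μM (c-KIT) final. Donor beads 20 min, then acceptor beads 60 min, room temperature.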
(In general: Bead proximity is the source of the signal in Alpha formats.)

On to `O=C(c1cccc(-c2cnc3[nH]c(-c4cnn(CC(F)(F)F)c4)cc3c2)n1)N1CCC(F)(F)C1` [Compound P-0112, (3,3-difluoropyrrolidin-1-yl)-[6-[2-[1-(2,2,2-trifluoroethyl)pyrazol-4-yl]-1H-pyrrolo[2,3-b]pyridin-5-yl]-2-pyridyl]methanone], for which the GI50 in test [1] was 0.0001 to 10 µM. Also, at c-KIT, the half-maximal inhibitory concentration (IC50) – broadly, the concentration at which inhibition is half-maximal – is 10 to 50 µM.

As for `CC(C)(C#N)CNC(=O)c1cccc(-c2cnc3[nH]c(-c4cnn(CC(F)(F)F)c4)cc3c2)n1` [Compound P-0113, N-(2-cyano-2-methyl-propyl)-6-[2-[1-(2,2,2-trifluoroethyl)pyrazol-4-yl]-1H-pyrrolo[2,3-b]pyridin-5-yl]pyridine-2-carboxamide], the GI50 in test [1] was 0.0001 to 10 µM. For the same molecule, the IC50 on c-KIT was in the range of 0.0001 to 10 µM.

As to `N#CC1(NC(=O)c2cccc(-c3cnc4[nH]c(-c5ccccc5)cc4c3)n2)CCC1` [Compound P-0114, N-(1-cyanocyclobutyl)-6-(2-phenyl-1H-pyrrolo[2,3-b]pyridin-5-yl)pyridine-2-carboxamide], the GI50 in test [1] fell in the range of 0.0001 to 10 µM. Further, at c-KIT, the IC50 lay in the range of 50 to 100 µM.

As to `N#CC1(F)CCN(C(=O)c2cccc(-c3cnc4[nH]c(-c5ccccc5)cc4c3)n2)C1` (stereo not drawn) [Compound P-0115, 3-fluoro-1-[6-(2-phenyl-1H-pyrrolo[2,3-b]pyridin-5-yl)pyridine-2-carbonyl]pyrrolidine-3-carbonitrile], the GI50 in test [1] was 0.0001 to 10 µM. The half-inhibitory concentration (IC50) at c-KIT was 50 to 100 µM.

For `N#C[C@H]1CCN(C(=O)c2cccc(-c3cnc4[nH]c(-c5ccccc5)cc4c3)n2)C1` [Compound P-0117, (3S)-1-[6-(2-phenyl-1H-pyrrolo[2,3-b]pyridin-5-yl)pyridine-2-carbonyl]pyrrolidine-3-carbonitrile], the GI50 in test [1] is 0.0001 to 10 µM. Also, the concentration for half-maximal inhibition (IC50) on c-KIT was 0.0001 to 10 µM.

With `CC(C)(C#N)NC(=O)c1cccc(-c2cnc3[nH]c(-c4ccccc4)cc3c2)n1` [Compound P-0118, N-(1-cyano-1-methyl-ethyl)-6-(2-phenyl-1H-pyrrolo[2,3-b]pyridin-5-yl)pyridine-2-carboxamide], the GI50 in test [1] fell in the range of 0.0001 to 10 µM. Moreover, the 50% inhibitory concentration (IC50) at c-KIT lay in the range of 50 to 100 µM.

For the molecule `CN(CCC#N)C(=O)c1cccc(-c2cnc3[nH]c(-c4ccccc4)cc3c2)n1` [Compound P-0119, N-(2-cyanoethyl)-N-methyl-6-(2-phenyl-1H-pyrrolo[2,3-b]pyridin-5-yl)pyridine-2-carboxamide], in test [1], the GI50 is 0.0001 to 10 µM. Moreover, at c-KIT, the half-inhibitory concentration (IC50) is 50 to 100 µM.

As for `N#CC1CCN(C(=O)c2cccc(-c3cnc4[nH]c(C5=CCCCC5)cc4c3)n2)C1` (stereo not drawn) [Compound P-0120, 1-[6-[2-(cyclohexen-1-yl)-1H-pyrrolo[2,3-b]pyridin-5-yl]pyridine-2-carbonyl]pyrrolidine-3-carbonitrile], in test [1], the GI50 was in the range of 0.0001 to 10 µM. Also, the IC50 at c-KIT lay in the range of 0.0001 to 10 µM.

Regarding `CC(C)(C#N)CNC(=O)c1cccc(-c2cnc3[nH]c(C4=CCCCC4)cc3c2)n1` [Compound P-0123, N-(2-cyano-2-methyl-propyl)-6-[2-(cyclohexen-1-yl)-1H-pyrrolo[2,3-b]pyridin-5-yl]pyridine-2-carboxamide], the GI50 in test [1] is 0.0001 to 10 µM. The half-inhibitory concentration (IC50) on c-KIT is 0.0001 to 10 µM.
